Test results reported in patent US7667052B2 (Eisai R&D Management Co., Ltd., priority 2003, dated 2010).
Read-outs that look alike come from different tables or passages of the source.

Experiments:
[1] = test system: transcription from VEGF promoter; test: VEGF transcription-suppressing activity, VEGF-PLAP reporter in U251/1-8 cell; type: cell-based; settings: Homo sapiens, U-251, U251/1-8 cell, PLAP activity, low oxygen 18 hours
Procedure, shortened: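 U251 glioma clone stably carrying a ~2.3 kb human VEGF promoter–secreted PLAP reporter, 4×10^4 cells/well, exposed to 3-fold dilutions of compound for 18 h under low oxygen. Supernatant PLAP read by chemiluminescence at pH 10.0; IC50 = 50% suppression, normoxia 0%, hypoxia 100%.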

[2] = test system: p388 mouse lymphoma; test: Growth suppressing activity to leukemia cell, Alamar Blue; type: cell-based; settings: 72 h, p388, 3 days, read-out: Multiplication suppressing activity IC50
Protocol: (§1) Dami human blood megakaryocytic cell, MOLT 4 human acute lymphoblastic cell, K562 human chronic myelogenous cell, U937 human histcytic lymphoma and p388 mouse lymphoma cultured in RPMI 1640 (manufactured by SIGMA Co., Ltd.) containing 10% fetal calf serum were dispensed in 96-well plates by 2×10^3 cells/180 μl, and they were cultured at 37° C. overnight in a CO2 incubator (5% CO2). Then, 20 μL of the above-mentioned incubation solution containing 11107B diluted with 2-fold succession was added, and they were further cultured in a CO2 incubator for 3 days.
(§2) 20 μL of Alamar Blue reagent (Biosource Co.) was added to the cultured cell, and fluorescence activity (ex 530 nm/em 590 nm) was measured by a micro plate reader (ARBO, Perkin-Elmer Co.) after 3 to 5 hours. The cell growth of the control to which the compound is not added is set as 100%, the concentration at which it was suppressed by 50% was determined.

[3] = test system: U937 human histcytic lymphoma; test: as above; type: cell-based; settings: U-937, 72 h, U937, 3 days, read-out: Multiplication suppressing activity IC50
Protocol: as §1, §2

[4] = test system: MOLT 4 human acute lymphoblastic cell; test: as above; type: cell-based; settings: MOLT-4, 72 h, MOLT4, 3 days, read-out: Multiplication suppressing activity IC50
Protocol: as §1, §2

[5] = test system: K562 human chronic myelogenous cell; test: as above; type: cell-based; settings: 72 h, K562, 3 days, read-out: Multiplication suppressing activity IC50
Protocol: as §1, §2

[6] = test system: Dami human blood megakaryocytic cell; test: as above; type: cell-based; settings: 72 h, 3 days, read-out: Multiplication suppressing activity IC50
Protocol: as §1, §2

[7] = test system: H460, U251, BSY-1, MDA-MB435, PC-3, DU145, OVCAR-3, WiDr and B16 melanoma cells; test: Growth suppressing activity to various cancer cells, Alamar Blue; type: cell-based, human; mouse; settings: 72 h; range over nine cancer cell lines, 3 days; read-out: growth suppressing activity IC50 values for the studied cell lines
Protocol: H460 human lung cancer cell, U251 human glioma cell, BSY-1 and MDA-MB435 human breast cancer cell, PC-3 and DU145 human prostate cancer cell, OVCAR-3 human ovarian cancer cell, WiDr human colon cancer cell and B16 melanoma mouse melanoma cell cultured in DMEM (manufactured by SIGMA Co., Ltd.) containing 10% fetal calf serum were dispensed in 96-well plates by 2×10^3 cells/180 μl, and they were cultured at 37° C. overnight in a CO2 incubator (5% CO2). Then, 20 μL of the above-mentioned incubation solution containing test compounds diluted with 2-fold succession was added, and they were further cultured in a CO2 incubator for 3 days.
as §2, with “cells,” for “cell,”, “and after 3 to 5 hours,” for “and”, “Co.).” for “Co.) after 3 to 5 hours.”

Compound: CCC(O)C(C)C1OC1CC(C)/C=C/C=C(\C)C1OC(=O)CC(O)CCC(C)(O)C(OC(C)=O)/C=C/C1C (centres unmarked) [11107B]
- IC50 ([1]; read-out: IC50 values of VEGF transcription-suppressing activity (range given)): 1 to 100 nM
- IC50 ([1]; read-out: VEGF transcription suppressing activity (IC50: nM)): 1.8 nM
- IC50 [2]: 2 nM
- IC50 [3]: 1.1 nM
- IC50 [4]: 1.5 nM
- IC50 [5]: 2.1 nM
- IC50 [6]: 1.2 nM
- IC50 [7]: 0.9 to 2.9 nM
